Measurements taken from PubChem BioAssay AID248 (DTP/NCI, 2004).
Values joined by “and” are separate entries in the source; they are usually repeats but may differ in a detail not shown here. Equal entries are not always repeated. Toxic doses and inconclusive results are not listed. Rule as the data show it: active = T/C of 150% or more; inactive = T/C below 125%.

System: L1210 leukemia ip in BDF1 mice, survival T/C
Experiment: NCI In Vivo Anticancer Drug Screen. Data for tumor model L1210 Leukemia (intraperitoneal) in B6D2F1 (BDF1) mice
Settings: endpoint: mean survival time, higher = longer survival
Outline: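 Transplanted-tumor mice were given test agent; controls received vehicle only. Survival readings from the two groups were divided (treated over control).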

[1] = dose: 100.0 mg/kg/injection, schedule: Q04DX002 (ip), vehicle: saline with Tween-80
[2] = dose: 200.0 mg/kg/injection, schedule: Q04DX002 (ip), vehicle: saline with Tween-80
[3] = dose: 400.0 mg/kg/injection, schedule: Q04DX002 (ip), vehicle: saline with Tween-80
[4] = dose: 50.0 mg/kg/injection, schedule: Q01DX001 (ip), vehicle: saline
[5] = dose: 100.0 mg/kg/injection, schedule: Q01DX001 (ip), vehicle: saline
[6] = dose: 200.0 mg/kg/injection, schedule: Q01DX001 (ip), vehicle: saline
[7] = dose: 100.0 mg/kg/injection, schedule: Q01DX009 (ip), vehicle: Klucel (hydroxypropylcellulose) (HPC)
[8] = dose: 100.0 mg/kg/injection, schedule: Q04DX003 (ip), vehicle: Klucel (hydroxypropylcellulose) (HPC)
[9] = dose: 200.0 mg/kg/injection, schedule: Q04DX003 (ip), vehicle: Klucel (hydroxypropylcellulose) (HPC)
[10] = dose: 50.0 mg/kg/injection, schedule: Q01DX009 (ip), vehicle: saline with Tween-80
[11] = dose: 100.0 mg/kg/injection, schedule: Q01DX009 (ip), vehicle: saline with Tween-80
[12] = dose: 200.0 mg/kg/injection, schedule: Q01DX009 (ip), vehicle: saline with Tween-80
[13] = dose: 400.0 mg/kg/injection, schedule: Q04DX003 (ip), vehicle: Klucel (hydroxypropylcellulose) (HPC)

Measured: T/C

CCCCN1CSC(=S)N(CCCC)C1
inactive: [1] 100 % of control | [2] 93 % of control | [3] 105 % of control

Oc1ccc2c(c1)Cc1c-2nc2ccccc2c1Cl
inactive: [4] 97 % of control | [5] 98 % of control | [6] 97 % of control | dose: 400.0 mg/kg/injection, schedule: Q01DX001 (ip), vehicle: saline 93 % of control

CC(Oc1ccccc1)C(=O)Nc1ccc(F)cc1 (stereo not given)
inactive: dose: 100.0 mg/kg/injection, schedule: Q04DX002 (ip), vehicle: Klucel (hydroxypropylcellulose) (HPC) 94 % of control | dose: 200.0 mg/kg/injection, schedule: Q04DX002 (ip), vehicle: Klucel (hydroxypropylcellulose) (HPC) 97 % of control | dose: 400.0 mg/kg/injection, schedule: Q04DX002 (ip), vehicle: Klucel (hydroxypropylcellulose) (HPC) 97 % of control

CC(=O)c1ccc(NCC2N=C(N)N=C(N)N2c2ccccc2)cc1 (stereo not given)
inactive: [7] 97 % of control | [8] 98 % of control | dose: 200.0 mg/kg/injection, schedule: Q01DX009 (ip), vehicle: Klucel (hydroxypropylcellulose) (HPC) 96 % of control | [9] 90 % of control

Cc1ccc(N2CCNCC2)cc1
inactive: dose: 6.25 mg/kg/injection, schedule: Q04DX003 (ip), vehicle: saline 91 % of control | dose: 12.5 mg/kg/injection, schedule: Q04DX003 (ip), vehicle: saline 93 % of control | dose: 25.0 mg/kg/injection, schedule: Q04DX003 (ip), vehicle: saline 103 % of control

O=C(/C=C\C=C\c1ccc2c(c1)OCO2)N1CCCCC1
inactive: [10] 105 % of control | [11] 105 % of control | [12] 105 % of control

CN1CC2(CCN(CC3COc4ccccc4O3)CC2)OC1=O (stereo not given)
inactive: dose: 50.0 mg/kg/injection, schedule: Q01DX001 (ip), vehicle: Klucel (hydroxypropylcellulose) (HPC) 93 % of control | dose: 100.0 mg/kg/injection, schedule: Q01DX001 (ip), vehicle: Klucel (hydroxypropylcellulose) (HPC) 103 % of control | dose: 200.0 mg/kg/injection, schedule: Q01DX001 (ip), vehicle: Klucel (hydroxypropylcellulose) (HPC) 117 % of control | dose: 400.0 mg/kg/injection, schedule: Q01DX001 (ip), vehicle: Klucel (hydroxypropylcellulose) (HPC) 107 % of control

O=C(O)CNc1cccc([N+](=O)[O-])c1
inactive: dose: 65.0 mg/kg/injection, schedule: Q01DX009 (ip), vehicle: Klucel (hydroxypropylcellulose) (HPC) 100 % of control | [7] 100 % of control | [8] 98 % of control | dose: 150.0 mg/kg/injection, schedule: Q01DX009 (ip), vehicle: Klucel (hydroxypropylcellulose) (HPC) 94 % of control | [9] 93 % of control | [13] 101 % of control

CCOC(=O)c1cc(C=O)oc1C
inactive: dose: 25.0 mg/kg/injection, schedule: Q01DX009 (ip), vehicle: Klucel (hydroxypropylcellulose) (HPC) 91 % of control | dose: 50.0 mg/kg/injection, schedule: Q01DX009 (ip), vehicle: Klucel (hydroxypropylcellulose) (HPC) 97 % of control | [7] 103 % of control | [8] 95 % of control | [9] 93 % of control | [13] 90 % of control

COc1cc([N+](=O)[O-])ccc1NC(=O)N(C)C1CCCCC1
inactive: dose: 100.0 mg/kg/injection, schedule: Q01DX001 (ip), vehicle: saline with Tween-80 103 % of control | [11] 98 % of control and 91 % of control | [1] 99 % of control and 105 % of control | dose: 200.0 mg/kg/injection, schedule: Q01DX001 (ip), vehicle: saline with Tween-80 100 % of control | [12] 92 % of control and 96 % of control | [2] 94 % of control and 86 % of control | dose: 400.0 mg/kg/injection, schedule: Q01DX001 (ip), vehicle: saline with Tween-80 94 % of control | dose: 400.0 mg/kg/injection, schedule: Q01DX009 (ip), vehicle: saline with Tween-80 94 % of control and 98 % of control | [3] 94 % of control and 89 % of control

O=C(C[n+]1ccccc1)N/N=C/c1ccccc1Cl
inactive: dose: 25.0 mg/kg/injection, schedule: Q01DX009 (ip), vehicle: saline with Tween-80 98 % of control | [10] 98 % of control | [11] 100 % of control

O=C(c1ccccc1)c1c2ccccc2cc2ccccc12
inactive: [10] 91 % of control | [11] 90 % of control | dose: 100.0 mg/kg/injection, schedule: Q04DX003 (ip), vehicle: saline with Tween-80 89 % of control | dose: 200.0 mg/kg/injection, schedule: Q04DX003 (ip), vehicle: saline with Tween-80 89 % of control | dose: 400.0 mg/kg/injection, schedule: Q04DX003 (ip), vehicle: saline with Tween-80 90 % of control

O=C(O)COc1ccc(F)c(Cl)c1
inactive: dose: 100.0 mg/kg/injection, schedule: Q04DX002 (ip), vehicle: saline 105 % of control | dose: 200.0 mg/kg/injection, schedule: Q04DX002 (ip), vehicle: saline 117 % of control | dose: 400.0 mg/kg/injection, schedule: Q04DX002 (ip), vehicle: saline 110 % of control

Clc1ccc2c(Cl)ncnc2c1
inactive: dose: 13.0 mg/kg/injection, schedule: Q01DX Z (ip), vehicle: methylcellulose (MC) 100 % of control | dose: 20.0 mg/kg/injection, schedule: Q01DX Z (ip), vehicle: methylcellulose (MC) 100 % of control | dose: 30.0 mg/kg/injection, schedule: Q01DX Z (ip), vehicle: methylcellulose (MC) 104 % of control | dose: 45.0 mg/kg/injection, schedule: Q01DX Z (ip), vehicle: methylcellulose (MC) 105 % of control | dose: 50.0 mg/kg/injection, schedule: Q01DX009 (ip), vehicle: saline 96 % of control | dose: 50.0 mg/kg/injection, schedule: Q04DX003 (ip), vehicle: saline 97 % of control | [5] 99 % of control | dose: 100.0 mg/kg/injection, schedule: Q01DX009 (ip), vehicle: saline 100 % of control | dose: 100.0 mg/kg/injection, schedule: Q04DX003 (ip), vehicle: saline 97 % of control | [6] 91 % of control | dose: 200.0 mg/kg/injection, schedule: Q04DX003 (ip), vehicle: saline 94 % of control

COc1ccc(NCCC(O)CN2CCOCC2)cc1 (stereo not given)
inactive: [4] 100 % of control | [5] 94 % of control | [6] 119 % of control

CC(O)(c1ccc(Cl)cc1)C(c1ccccc1)c1ccccn1 (stereo not given)
inactive: dose: 50.0 mg/kg/injection, schedule: Q01DX009 (ip), vehicle: water 103 % of control | dose: 100.0 mg/kg/injection, schedule: Q01DX009 (ip), vehicle: water 95 % of control | dose: 100.0 mg/kg/injection, schedule: Q04DX003 (ip), vehicle: water 116 % of control | dose: 200.0 mg/kg/injection, schedule: Q01DX009 (ip), vehicle: water 96 % of control | dose: 200.0 mg/kg/injection, schedule: Q04DX003 (ip), vehicle: water 119 % of control | dose: 400.0 mg/kg/injection, schedule: Q01DX009 (ip), vehicle: water 97 % of control | dose: 400.0 mg/kg/injection, schedule: Q04DX003 (ip), vehicle: water 104 % of control

CCCCCCC(OC(C)=O)OC(C)=O
inactive: dose: 222.0 mg/kg/injection, schedule: Q01DX Z (ip), vehicle: saline 101 % of control | dose: 333.0 mg/kg/injection, schedule: Q01DX Z (ip), vehicle: saline 103 % of control | dose: 500.0 mg/kg/injection, schedule: Q01DX Z (ip), vehicle: saline 104 % of control
